Among the data in US20240199623A1 (ILDONG PHARMACEUTICAL CO., LTD., priority 2020, published 2024) are EC50 values, retold here.

human wild type-CFTR, sequence (P13569 whole entry): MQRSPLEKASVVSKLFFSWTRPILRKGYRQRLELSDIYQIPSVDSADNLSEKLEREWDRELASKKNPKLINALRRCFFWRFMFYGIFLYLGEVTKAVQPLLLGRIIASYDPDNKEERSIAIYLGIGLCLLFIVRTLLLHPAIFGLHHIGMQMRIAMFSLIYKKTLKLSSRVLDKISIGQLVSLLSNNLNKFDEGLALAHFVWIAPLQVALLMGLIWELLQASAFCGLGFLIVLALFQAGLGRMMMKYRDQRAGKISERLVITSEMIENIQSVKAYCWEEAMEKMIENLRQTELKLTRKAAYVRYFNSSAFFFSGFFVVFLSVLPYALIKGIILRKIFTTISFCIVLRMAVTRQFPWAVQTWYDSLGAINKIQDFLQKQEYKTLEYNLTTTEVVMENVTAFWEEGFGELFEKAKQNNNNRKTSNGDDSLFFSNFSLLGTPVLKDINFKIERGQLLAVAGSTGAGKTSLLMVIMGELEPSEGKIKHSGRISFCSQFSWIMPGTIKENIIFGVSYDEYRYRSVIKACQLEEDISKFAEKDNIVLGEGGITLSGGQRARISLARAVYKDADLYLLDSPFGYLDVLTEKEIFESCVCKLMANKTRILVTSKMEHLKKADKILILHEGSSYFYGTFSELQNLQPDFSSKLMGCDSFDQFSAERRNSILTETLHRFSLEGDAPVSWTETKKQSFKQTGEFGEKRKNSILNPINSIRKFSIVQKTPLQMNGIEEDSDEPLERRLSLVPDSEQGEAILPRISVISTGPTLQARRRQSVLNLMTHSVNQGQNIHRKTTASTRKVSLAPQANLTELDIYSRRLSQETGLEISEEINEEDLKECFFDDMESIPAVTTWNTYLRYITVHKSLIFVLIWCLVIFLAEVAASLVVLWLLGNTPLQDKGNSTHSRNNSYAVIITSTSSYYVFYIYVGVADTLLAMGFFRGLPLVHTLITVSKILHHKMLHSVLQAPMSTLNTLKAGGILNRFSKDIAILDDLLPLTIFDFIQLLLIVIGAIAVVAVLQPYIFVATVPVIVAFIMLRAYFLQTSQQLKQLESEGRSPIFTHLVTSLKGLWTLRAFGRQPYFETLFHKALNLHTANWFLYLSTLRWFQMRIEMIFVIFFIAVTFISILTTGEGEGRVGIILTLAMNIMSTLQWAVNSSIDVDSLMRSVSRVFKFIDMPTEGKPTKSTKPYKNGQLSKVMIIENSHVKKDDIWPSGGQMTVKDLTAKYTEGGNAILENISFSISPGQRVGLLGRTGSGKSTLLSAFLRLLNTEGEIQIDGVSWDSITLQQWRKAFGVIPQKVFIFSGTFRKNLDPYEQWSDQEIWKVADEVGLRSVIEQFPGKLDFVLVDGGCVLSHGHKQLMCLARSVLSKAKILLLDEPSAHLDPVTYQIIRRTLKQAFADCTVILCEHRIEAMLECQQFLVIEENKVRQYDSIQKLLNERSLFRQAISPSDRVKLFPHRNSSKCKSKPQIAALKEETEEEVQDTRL

The target of this assay is human wild type-CFTR (Homo sapiens, UniProt P13569). In words: Cell-based YFP assay. Details: expressed in transfected cells; host or cells: CHO-K1 (Chinese hamster ovary). Particulars: CHO-K1 cells expressing human wild type-CFTR and YFP-H148Q/I152L; forskolin 20 μM = 100% activity; read-out: Cell-based YFP Assay (EC50) Concentration Range. Summed up:
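CHO-K1 cells co-expressing human wild-type CFTR and YFP-H148Q/I152L halide sensor, grown 48 h at 37 °C, then in PBS. YFP quenching by I⁻ influx read at 37 °C after adding 140 mM I⁻ solution, sampled every 0.4 s for 14 s. Triplicates averaged; EC50 fitted.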
As for `COc1ccc(-c2ccnc3cc(C(=O)Nc4ccc(C(=O)N5CCN(C)CC5)c(OC)c4)nn23)cc1OC` [Compound 218, 7-(3,4-dimethoxyphenyl)-N-(3-methoxy-4-(4-methylpiperazine-1-carbonyl)phenyl)pyrazolo [1,5-a]pyrimidine-2-carboxamide], the EC50 was at least 2000 nM.
The same measure for `CCOc1ccc(NC(=O)c2cc3ncc(-c4ccc(OC)c(OC)c4)cn3n2)cc1` [Compound 254, 6-(3,4-dimethoxyphenyl)-N-(4-ethoxyphenyl)pyrazolo[1,5-a]pyrimidine-2-carboxamide]: at least 2000 nM; for `COC(=O)[C@H](CCSC)NC(=O)c1ccc(NC(=O)c2cc3nccc(-c4ccc(OC)c(OC)c4)n3n2)cc1` [Compound 59, methyl (4-(7-(3,4-dimethoxyphenyl)pyrazolo [1,5-a]pyrimidine-2-carboxamido)benzoyl)-L-methioninate]: under 200 nM.
The same measure for `COc1ccc(-c2ccnc3cc(C(=O)Nc4ccc(C(=O)N5CCN(C)CC5)c(C)c4)nn23)cc1OC` [Compound 215, 7-(3,4-dimethoxyphenyl)-N-(3-methyl-4-(4-methylpiperazine-1-carbonyl)phenyl)pyrazolo [1,5-a]pyrimidine-2-carboxamide]: at least 2000 nM.
For `COc1ccc(-c2ccnc3cc(C(=O)NC45CC(NC(=O)N6CCOCC6)(C4)C5)nn23)cc1OC` [Compound 138, N-(3-(7-(3,4-dimethoxyphenyl)pyrazolo[1,5-a]pyrimidine-2-carboxamido)bicyclo [1.1.1]pentan-1-yl)morpholine-4-carboxamide] the value was at least 2000 nM.
Consider `COc1ccc(-c2ccnc3cc(C(=O)Nc4ccc(CN5CCOCC5)cc4)nn23)cc1OC` [Compound 244, 7-(3,4-dimethoxyphenyl)-N-(4-(morpholinomethyl)phenyl) pyrazolo[1,5-a]pyrimidine-2-carboxamide], for which the EC50 was under 200 nM.
For `COc1ccc(-c2ccnc3cc(C(=O)Nc4ccc(C(=O)OCCCN5CCOCC5)c(Cl)c4)nn23)cc1OC` [Compound 162, 3-morpholinopropyl 2-chloro-4-(7-(3,4-dimethoxyphenyl)pyrazolo [1,5-a]pyrimidine-2-carboxamido)benzoate] the value was at least 2000 nM.
For the compound `CCOC(=O)CNC(=O)c1cc2nccc(-c3ccc(OC)c(OC)c3)n2n1` [Compound 20, ethyl (7-(3,4-dimethoxyphenyl)pyrazolo [1,5-a]pyrimidine-2-carbonyl) glycinate], the EC50 fell in the range of 200 to 2000 nM.
The same measure for `COc1ccc(-c2ccnc3cc(C(=O)N4CCN(C(=O)c5ccsc5)[C@@H](C)C4)nn23)cc1OC` [Compound 379, (S)-(7-(3,4-dimethoxyphenyl)pyrazolo[1,5-a]pyrimidin-2-yl)(3-methyl-4-(thiophene-3-carbonyl)piperazin-1-yl)methanone]: under 200 nM; for `CC[C@H]1CN(C(=O)c2cc3nccc(-c4ccc(OC)c(OC)c4)n3n2)CCN1C(=O)c1ccccc1` [Compound 375, (S)-(4-benzoyl-3-ethylpiperazin-1-yl)(7-(3,4-dimethoxyphenyl)pyrazolo [1,5-a]pyrimidin-2-yl)methanone]: under 200 nM.
As for `CC[C@H]1CN(C(=O)c2cc3nccc(-c4ccc(OC)c(OC)c4)n3n2)CCN1` [Compound 371, (S)-(7-(3,4-dimethoxyphenyl)pyrazolo[1,5-a]pyrimidin-2-yl)(3-ethylpiperazin-1-yl)methanone], the EC50 was in the range of 200 to 2000 nM.
The same measure for `CCOc1ccc(NC(=O)c2cc3nccc(-c4ccc(OC(F)(F)F)c(Cl)c4)n3n2)cc1` [Compound 298, 7-(3-chloro-4-(trifluoromethoxy)phenyl)-N-(4-ethoxyphenyl)pyrazolo [1,5-a]pyrimidine-2-carboxamide]: at least 2000 nM; for `COc1ccc(-c2ccnc3cc(C(=O)N4CCN(c5ncccn5)CC4)nn23)cc1OC` [Compound 185, (7-(3,4-dimethoxyphenyl)pyrazolo[1,5-a]pyrimidin-2-yl)(4-(pyrimidin-2-yl)piperazin-1-yl)methanone]: 200 to 2000 nM.
For `COc1ccc(-c2ccnc3cc(C(=O)N[C@H]4CC[C@@H](C(=O)N5CCN(C)CC5)CC4)nn23)cc1OC` [Compound 240, 7-(3,4-dimethoxyphenyl)-N-((1S,4S)-4-(4-methylpiperazine-1-carbonyl)cyclohexyl) pyrazolo[1,5-a]pyrimidine-2-carboxamide] the value was at least 2000 nM.
For `COc1ccc(-c2ccnc3cc(C(=O)N4CCN(C(=O)c5ccccc5)[C@@H](C5CC5)C4)nn23)cc1OC` [Compound 378, (S)-(4-benzoyl-3-cyclopropylpiperazin-1-yl)(7-(3,4-dimethoxyphenyl)pyrazolo[1,5-a]pyrimidin-2-yl) methanone] the value was under 200 nM; for `COc1ccc(-c2ccnc3cc(C(=O)N4CCN(c5ccccn5)CC4)nn23)cc1OC` [Compound 153, (7-(3,4-dimethoxyphenyl)pyrazolo[1,5-a]pyrimidin-2-yl)(4-(pyridin-2-yl)piperazin-1-yl)methanone], 200 to 2000 nM; for `COC(=O)C[C@H](NC(=O)c1ccc(NC(=O)c2cc3nccc(-c4ccc(OC)c(OC)c4)n3n2)cc1)C(=O)OC` [Compound 60, dimethyl (4-(7-(3,4-dimethoxyphenyl)pyrazolo [1,5-a]pyrimidine-2-carboxamido)benzoyl)-L-aspartate], under 200 nM.
On to `CCOc1ccc(NC(=O)c2cc3nccc(-c4ccc(OC)cc4F)n3n2)cc1` [Compound 296, N-(4-ethoxyphenyl)-7-(2-fluoro-4-methoxyphenyl)pyrazolo [1,5-a]pyrimidine-2-carboxamide], for which the EC50 was at least 2000 nM.
For `O=C(Nc1ccc(N2CCOCC2)cn1)c1cc2nccc(-c3ccc(OC(F)(F)F)c(Cl)c3)n2n1` [Compound 299, 7-(3-chloro-4-(trifluoromethoxy)phenyl)-N-(5-morpholinopyridin-2-yl) pyrazolo[1,5-a]pyrimidine-2-carboxamide] the value was at least 2000 nM.
The same measure for `COc1ccc(-c2ccnc3cc(C(=O)N4CCN(Cc5ccccc5)C(C)(C)C4)nn23)cc1OC` [Compound 207, (4-benzyl-3,3-dimethylpiperazin-1-yl)(7-(3,4-dimethoxyphenyl)pyrazolo [1,5-a]pyrimidin-2-yl)methanone]: 200 to 2000 nM.
The same measure for `COc1ccc(-c2ccnc3cc(C(=O)N[C@H]4CC[C@@H](C(=O)OCc5ccccn5)CC4)nn23)cc1OC` [Compound 247, pyridin-2-ylmethyl (1S,4S)-4-(7-(3,4-dimethoxyphenyl)pyrazolo [1,5-a]pyrimidine-2-carboxamido)cyclohexane-1-carboxylate]: 200 to 2000 nM; for `COc1ccc(-c2ccnc3cc(C(=O)N4CCc5ccc(C(=O)N6CCN(C)CC6)cc5C4)nn23)cc1OC` [Compound 237, (7-(3,4-dimethoxyphenyl)pyrazolo[1,5-a]pyrimidin-2-yl)(7-(4-methylpiperazine-1-carbonyl)-3,4-dihyroisoquinolin-2(1H)-yl)methanone]: at least 2000 nM.
Regarding `CCCCCCCCCCOC(=O)c1ccc(NC(=O)c2cc3nccc(-c4ccc(OC)c(OC)c4)n3n2)cc1` [Compound 337, decyl 4-(7-(3,4-dimethoxy-phenyl)pyrazolo[1,5-a]pyrimidine-2-carboxamido)benzoate], the EC50 is at least 2000 nM.
